Data from patent US6670381B2, “Benzamide derivatives as thrombin inhibitors” (SmithKline Beecham Corporation, priority 1998, dated 2003).

Columns and labels:
human α-thrombin = human α-thrombin (Homo sapiens, UniProt P00734); assay: Thrombin inhibitory activity, chromogenic assay; format: biochemical; conditions: substrate N-p-tosyl-gly-pro-lys p-nitroanilide 100 μM, thrombin 1 nM, pH 7.4, room temperature
Procedure: All dilutions were made in a buffer consisting of: 50 mM HEPES, 150 mM NaCl, 5 mM CaCl2, 0.1% PEG and at pH 7.4. Briefly, the substrate (final conc. of 100 μM) was added to thrombin (final conc. of 1 nM) and the reaction monitored for 10 mins at 405 nm using a Biotek EL340 plate reader; the assay was performed at room temperature. To obtain IC50s the data were analyzed using Kineticalc™ and processed using ActivityBase™ to obtain the IC50 value.

human plasma = assay: APTT (activated partial thromboplastin time), clotting time of human plasma in vitro; format: biochemical; conditions: pooled citrated human plasma; for APTT: concentration of compound to extend the normal APTT by 1.5×: 1.5× extension of clotting time; for APTT: degree of extension (ratio of clotting times in presence or absence of compound): at 100 nM compound
Procedure: Pooled citrated (0.38% trisodium citrate w/v) plasma was prepared from blood taken from healthy volunteers and stored at −70° C. The APTT tests were performed using a Thrombtrack 4 from Nycomed. Actin reagent (a reconstituted extract from dehydrated rabbit brain, also containing ellagic acid) was obtained from Baxter Healthcare Corporation USA. Briefly, citrated plasma was added to either compound or distilled water followed by addition of actin reagent. These were then mixed for 2 min at 37° C. before adding calcium chloride to initiate clotting. Compounds extended the normal clotting time, which is in the range 30-35 seconds, to varying degrees depending on their concentrations. The degrees of extension of the APTT was calculated by the ratio of clotting times in presence or absence of compound. The concentration of a compound to extend the ‘normal’ APTT by 1.5× was used as a criterion for comparing the anti-coagulant activities of compounds.

SMILES	IC50 (human α-thrombin) [nM]	APTT: concentration of compound to extend the normal APTT by 1.5× (human plasma)	APTT: degree of extension (ratio of clotting times in presence or absence of compound) (human plasma)
CCN(C(=O)c1cc(C)cc(OC[C@H](C)Nc2ccncc2)c1)C(C)C [Example 1, N-Ethyl-N-isopropyl-3-methyl-5-[2S-(pyridin-4-ylamino)-propoxy]-benzamide]	< 1	40 (1.5×) nM	–
Cc1cc(OC[C@H](C)Nc2ccncc2)cc(C(=O)N(C)C(C)C)c1 [Example 3, N-Isopropyl-3,N-dimethyl-5-[2S-(pyridin-4-ylamino)-propoxy]-benzamide]	3	90 (1.5×) nM	–
CCCN(C)C(=O)c1cc(C)cc(OC[C@H](C)Nc2ccncc2)c1 [Example 4, 3,N-Dimethyl-N-propyl-5-[2S-(pyridin-4-ylamino)-propoxy]-benzamide]	5	97 (1.5×) nM	–
CCCN(CC)C(=O)c1cc(C)cc(OC[C@H](C)Nc2ccncc2)c1 [Example 6, N-Ethyl-3-methyl-N-propyl-5-[2S-(pyridin-4-ylamino)-propoxy]-benzamide]	1.5	120 (1.5×) nM	–
CCCN(C(=O)c1cc(C)cc(OC[C@H](C)Nc2ccncc2)c1)C(C)C [Example 9, N-Isopropyl-3-methyl-N-propyl-5-[2S-(pyridin-4-ylamino)-propoxy]-benzamide]	< 1	60 (1.5×) nM	–
CCCN(C(=O)c1cc(Cl)cc(OC[C@H](C)Nc2ccncc2)c1)C(C)C [Example 10, 3-Chloro-N-isopropyl-N-propyl-5-[2S-(pyridin-4-ylamino)-propoxy]-benzamide]	3.4	–	100 (1.28×)
CCC(COc1cc(Cl)cc(C(=O)N(C(C)C)C(C)C)c1)Nc1ccncc1.Cl (stereo not shown) [Example 11, 3-Chloro-N,N-diisopropyl-5-[2-(pyridin-4-ylamino)-butoxy]-benzamide hydrochloride]	26	650 (1.5×) nM	–

Continued, in another order:

IC50 (human α-thrombin) [nM]	SMILES	APTT: concentration of compound to extend the normal APTT by 1.5× (human plasma)	APTT: degree of extension (ratio of clotting times in presence or absence of compound) (human plasma)
< 1	Cc1cc(OC[C@H](C)Nc2ccncc2)cc(C(=O)N(C(C)C)C(C)C)c1 [Example 2, N,N-Diisopropyl-3-methyl-5-[2S-(pyridin-4-ylamino)-propoxy]-benzamide]	80 (1.5×) nM	–
< 1	CCCN(CCC)C(=O)c1cc(C)cc(OC[C@H](C)Nc2ccncc2)c1 [Example 5, 3-Methyl-N,N-dipropyl-5-[2S-(pyridin-4-ylamino)-propoxy]-benzamide]	110 (1.5×) nM	–
< 1	CCCCN(CCC)C(=O)c1cc(C)cc(OC[C@H](C)Nc2ccncc2)c1 [Example 7, N-Butyl-3-methyl-N-propyl-5-[2S-(pyridin-4-ylamino)-propoxy]-benzamide]	–	100 (1.31×)
< 1	Cc1cc(OC[C@H](C)Nc2ccncc2)cc(C(=O)N(C(C)C)C2CCCCC2)c1 [Example 8, N-Cyclohexyl-N-isopropyl-3-methyl-5-[2S-(pyridin-4-ylamino)-propoxy]-benzamide]	–	100 (1.32×)
